According to ChEMBL document CHEMBL5154793, “Discovery of Thieno[2,3-d]pyrimidine-based KRAS G12D inhibitors as potential anticancer agents via combinatorial virtual screening” (Eur J Med Chem, 2022):
Calls of active or inactive are those of the source. No cut-off for these calls is given here.

Experiments:
PANC-1 = test: Antiproliferative activity against human PANC1 cells harboring KRAS G12D mutant assessed as inhibition of cell viability after 24 hrs by MTT assay; format: functional, cell-based; details: PANC-1, 24 h
[1] = Toxicity in BALB/c mouse allografted with mouse CT26 cells assessed as body weight loss at 40 to 60 mg/kg, ip administered once a day for 10 days; format: organism-based; details: in vivo, 240 h, dose 40-60 mg/kg, time 10 day
[2] = test system: GTPase KRas (Homo sapiens), P01116 [G12D]; test: Inhibition of KRAS G12D mutant (unknown origin) downstream signalling in human SW1990 cells assessed as suppression of Raf phosphorylation incubated for 24 hrs by pull down based Western blotting analysis; format: cell-based; details: dose <= 16.0 µM, DDE = dose-dependent effect
SW1990 [3] = test: Antiproliferative activity against human SW1990 cells harboring KRAS G12D mutant assessed as inhibition of cell viability after 24 hrs by MTT assay; format: functional, cell-based; details: SW1990, 24 h
HCT-116 = test: Antiproliferative activity against human HCT-116 cells harboring KRAS G13D mutant assessed as inhibition of cell viability after 24 hrs by MTT assay; format: functional, cell-based; details: HCT-116, 24 h
NCI-H358 = test: Antiproliferative activity against human NCI-H358 cells harboring KRAS G12C mutant assessed as inhibition of cell viability after 24 hrs by MTT assay; format: functional, cell-based; details: NCI-H358, 24 h
HeLa = test: Antiproliferative activity against human HeLa cells harboring wild type KRAS assessed as inhibition of cell viability after 24 hrs by MTT assay; format: functional, cell-based
CT26 [4] = test: Antiproliferative activity against mouse CT26 cells harboring KRAS G12D mutant assessed as inhibition of cell viability after 24 hrs by MTT assay; format: functional, cell-based; details: CT26, 24 h
SW1990 [5] = test: Induction of apoptosis in human SW1990 cells assessed as viable cells at 2 uM measured after 24 hrs by PI/Annexin V staining based flow cytometric analysis (reference value: 82.9%); format: functional; details: read-out: Activity
SW1990 [6] = test: Induction of apoptosis in human SW1990 cells assessed as late apoptotic cells at 2 uM measured after 24 hrs by PI/Annexin V staining based flow cytometric analysis (reference value: 3.75%); format: functional
SW1990 [7] = test: Induction of apoptosis in human SW1990 cells assessed as necrotic cells at 2 uM measured after 24 hrs by PI/Annexin V staining based flow cytometric analysis (reference value: 2.69%); format: functional
SW1990 [8] = test: Induction of apoptosis in human SW1990 cells assessed as late apoptotic cells at 8 uM measured after 24 hrs by PI/Annexin V staining based flow cytometric analysis (reference value: 3.75%); format: functional
SW1990 [9] = test: Induction of apoptosis in human SW1990 cells assessed as necrotic cells at 8 uM measured after 24 hrs by PI/Annexin V staining based flow cytometric analysis (reference value: 2.69%); format: functional
CT26 [10] = test: Induction of apoptosis in mouse CT26 cells assessed as viable cells at 2 uM measured after 24 hrs by PI/Annexin V staining based flow cytometric analysis (reference value: 84.8%); format: functional; details: read-out: Activity
CT26 [11] = test: Induction of apoptosis in mouse CT26 cells assessed as late apoptotic cells at 2 uM measured after 24 hrs by PI/Annexin V staining based flow cytometric analysis (reference value: 3.21%); format: functional
CT26 [12] = test: Induction of apoptosis in mouse CT26 cells assessed as necrotic cells at 2 uM measured after 24 hrs by PI/Annexin V staining based flow cytometric analysis (reference value: 0.789%); format: functional
CT26 [13] = test: Induction of apoptosis in mouse CT26 cells assessed as viable cells at 4 uM measured after 24 hrs by PI/Annexin V staining based flow cytometric analysis (reference value: 84.8%); format: functional; details: read-out: Activity
CT26 [14] = test: Induction of apoptosis in mouse CT26 cells assessed as early apoptotic cells at 8 uM measured after 24 hrs by PI/Annexin V staining based flow cytometric analysis (reference value: 11.2%); format: functional
CT26 [15] = test: Induction of apoptosis in mouse CT26 cells assessed as late apoptotic cells at 8 uM measured after 24 hrs by PI/Annexin V staining based flow cytometric analysis (reference value: 3.21%); format: functional
GTPase KRas = GTPase KRas (Homo sapiens, UniProt P01116, G12D); test: Binding affinity to human his-tagged KRAS G12D mutant assessed as dissociation constant by isothermal titration calorimetry
CT26 [16] = test: Inhibition of GTP bound KRAS in mouse CT26 cells assessed as down regulation of KRAS-GTP protein level incubated for 12 hrs by Pull-Down based Western blotting analysis; format: functional, cell-based; details: dose 10-20 µM, DDE = dose-dependent effect
CT26 [17] = test: Antitumor activity against mouse CT26 cells allografted in BALB/c mouse assessed as inhibition of tumor growth at 60 mg/kg, ip administered once a day for 10 days; format: functional; details: CT26, 240 h, time 10 day, read-out: TGI
CT26 [18] = test: Antitumor activity against mouse CT26 cells allografted in BALB/c mouse assessed as tumor volume at 40 mg/kg, ip administered once a day for 10 days; format: functional; details: time 10 day
CT26 [19] = test: Antitumor activity against mouse CT26 cells allografted in BALB/c mouse assessed as tumor volume at 60 mg/kg, ip administered once a day for 10 days; format: functional; details: time 10 day
CT26 [20] = test: In vivo inhibition of KRAS G12D mutant (unknown origin) mediated downstream signalling in mouse CT26 cells allografted in BALB/c mouse assessed as decrease in phosphorylation level of ErK in tumor tissue at 40 to 60 mg/kg, ip administered once a day for 10 days by Western blotting analysis; format: functional, organism-based; details: dose 40-60 mg/kg, time 10.0 day
[21] = Toxicity in BALB/c mouse allografted with mouse CT26 cells assessed as effect on heart morphology at 40 to 60 mg/kg, ip administered once a day for 10 days by H and E staining based microscopic analysis; format: organism-based; details: in vivo, 240 h, dose 40-60 mg/kg, time 10 day
[22] = Toxicity in BALB/c mouse allografted with mouse CT26 cells assessed as WBC level at 40 to 60 mg/kg, ip administered once a day for 10 days (reference value: 3.090 to 6.730 10^9/L); format: organism-based; details: in vivo, 240 h, dose 40-60 mg/kg, time 10 day
[23] = Toxicity in BALB/c mouse allografted with mouse CT26 cells assessed as HGB level at 40 to 60 mg/kg, ip administered once a day for 10 days (reference value: 0.319 to 108 g/L); format: organism-based; details: in vivo, 240 h, dose 40-60 mg/kg, time 10 day
[24] = Toxicity in BALB/c mouse allografted with mouse CT26 cells assessed as MCHC level at 40 to 60 mg/kg, ip administered once a day for 10 days (reference value: 338 to 361 g/L); format: organism-based; details: in vivo, 240 h, dose 40-60 mg/kg, time 10 day
[25] = Toxicity in BALB/c mouse allografted with mouse CT26 cells assessed as basophil level at 40 to 60 mg/kg, ip administered once a day for 10 days (reference value: 0.050 to 40.3 10^9/L); format: organism-based; details: in vivo, 240 h, dose 40-60 mg/kg, time 10 day
[26] = Toxicity in BALB/c mouse allografted with mouse CT26 cells assessed as lymphocyte level at 40 to 60 mg/kg, ip administered once a day for 10 days (reference value: 5.6 to 35.2 %); format: organism-based; details: in vivo, 240 h, dose 40-60 mg/kg, time 10 day
[27] = Toxicity in BALB/c mouse allografted with mouse CT26 cells assessed as eosinophil level at 40 to 60 mg/kg, ip administered once a day for 10 days (reference value: 16 to 17.3 %); format: organism-based; details: in vivo, 240 h, dose 40-60 mg/kg, time 10 day

Sequence of GTPase KRas (P01116 whole entry G12D): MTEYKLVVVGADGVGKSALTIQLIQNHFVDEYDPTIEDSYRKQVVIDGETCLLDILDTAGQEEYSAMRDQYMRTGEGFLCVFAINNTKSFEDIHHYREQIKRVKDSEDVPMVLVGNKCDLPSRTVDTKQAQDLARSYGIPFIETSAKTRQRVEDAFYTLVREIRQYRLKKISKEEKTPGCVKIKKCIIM
Sequence of GTPase KRas (Homo sapiens), P01116 [G12D] (P01116 whole entry G12D, looked up): as the sequence (P01116 whole entry G12D) above

## COc1ccc(C(F)(F)F)cc1-c1cc2c(N3CC4CCC(C3)N4)ncnc2s1
PANC-1
  IC50: 2300 nM
[1]
  Activity: Non-Toxic
[2]
  Activity: Dde
SW1990 [3]
  IC50: 2100 nM
HCT-116
  IC50: 4700 nM
NCI-H358
  IC50: 4500 nM
HeLa
  IC50: 7400 nM
CT26 [4]
  IC50: 2000 nM
SW1990 [5]
  viability at 2 µM: 74.4%
SW1990 [6]
  Activity: 18.6%
SW1990 [7]
  Activity: 3.11%
SW1990 [8]
  Activity: 56.9%
SW1990 [9]
  Activity: 1.81%
CT26 [10]
  viability at 2 µM: 78.6%
CT26 [11]
  Activity: 4.59%
CT26 [12]
  Activity: 1.39%
CT26 [13]
  viability at 4 µM: 38.8%
CT26 [14]
  Activity: 24.4%
CT26 [15]
  Activity: 60.4%
GTPase KRas
  Kd: 33 nM
CT26 [16]
  inhibition: Dde
CT26 [17]
  inhibition in vivo at 60 mg/kg: 53%
CT26 [18]
  Activity: 17%
CT26 [19]
  Activity: 11%
CT26 [20]
  Activity: Active
[21]
  Activity: Non-Toxic
[22]
  Activity: 5.05 10^9/L
[23]
  Activity: 0.41 g/L
[24]
  Activity: 336 g/L
[25]
  Activity: 0.01 10^9/L
[26]
  Activity: 4.9%
[27]
  Activity: 0.2%
